Reference: patent US11135252B2, “Probiotic therapies for developmental disorders and other neurological disorders” (Baylor College of Medicine, priority 2016, dated 2021)

Tests used:
MHFD offspring = experiment: Three-chamber social test in MHFD offspring; type: in vivo, mice; conditions: for preference for social novelty (time interacting with novel vs familiar mouse) / sociability (time interacting with mouse vs empty cage): in drinking water from weaning for 4 weeks, 1×10^8 organisms/mouse/day; for preference for social novelty / sociability: intranasal oxytocin approximately 200 μg/kg, 30 min prior
Protocol: Crawley's three-chamber test for sociability and preference for social novelty was performed as described (Silverman et al., 2010). In brief, the mouse first experienced a 10-minute period of habituation during which it was allowed to freely explore a 60×40×23 cm Plexiglass arena divided into three equally sized, interconnected chambers (Left, Center, Right). Sociability was measured during a second ten-minute period in which the subject could interact either with an empty wire cup (Empty) or a wire cup containing an age and sex-matched stranger conspecific (Mouse 1). Time spent interacting (sniffing, crawling upon) with either the empty cup or the stranger mouse contained in the other cup as well as time spent in each chamber was recorded using the AnyMaze software, by independent observers. Empty cup placement in the Left or Right chamber during the Sociability period was counterbalanced between trials. Finally, preference for social novelty was assayed by introducing a second stranger mouse (Mouse 2) into the previously the empty wire cup. Time spent in each chamber as well as time spent interacting with either Mouse 1 or Mouse 2 was recorded using the automated AnyMaze software by independent observers. Lactobacillus reuteri MM4-1A (ATCC-PTA-6475) and Lactobacillus johnsonii (ATCC 33200) were cultured anaerobically in MRS broth in a 90% N2, 5% CO2, 5% H2 environment. L. reuteri was heat-killed by keeping the bacteria at 80° C. for 20 minutes (Wang et al., 2010). Bacterial viability was assessed by plating and the efficacy of the heat-kill procedure was confirmed by the absence of colony growth following plating. Cultures were centrifuged, washed, and resuspended in anaerobic solution (PBS) and frozen at −80° C. until use. PBS, live or heat-killed L. reuteri were added to the drinking water, which was changed daily to minimize dosage variability. Whereas the experimental group received live bacteria, one control group received identically prepared cultures of heat-killed bacteria. A second group of control mice received water treated with PBS alone. Live and heat-killed L. reuteri were supplied at a dosage of 1×10^8 organisms/mouse/day continuously in drinking water. Mice consumed the treated water ad libitum over the treatment period. The treated drinking water for each group was replaced daily two hours prior to the onset of the dark cycle to minimize variation in microbial exposure. Behavioral assays were initiated after 4-weeks of L. reuteri or control treatment. The protocol of the L. johnsonii preparation and administration matched the L. reuteri protocol. Fecal samples for sequencing and tissue used in the immunofluorescence studies were collected at the end of the treatment. Oxytocin was obtained from Tocris Bioscience (product 1910) and solubilized in 10% dimethyl sulfoxide (DMSO) in PBS. 10% DMSO in PBS was used as the vehicle control. Mice received oxytocin intranasally (at approximately 200 μg/kg) thirty minutes prior to behavior. 1.25 μl of oxytocin or vehicle solution was injected into each nostril from P10 pipette. Oxytocin dose was selected according to dosages reported to rescue social behavior in genetic models phenotypically expressing ASD-like behaviors (Penagarikano et al., 2015).

GF mice = experiment: Three-chamber social test in germ-free mice treated with L. reuteri; type: in vivo
Protocol: C57Bl6/J mice were obtained from Jackson Laboratories (#000-664) and were kept on a 12 h light/dark cycle and had access to food and water ad libitum. Females were placed on either a regular diet (RD) consisting of 13.4% kcal from fat, 30% kcal from protein, and 57% kcal from carbohydrates (Lab Diets, #5001) or high fat diet (HFD) consisting of 60% kcal from fat, 20% kcal from protein, and […] kcal from carbohydrates (Research Diets, #D12492). Maternal weight was measured weekly. Maternal total and fat mass were measured using an mq7.5 Minispec NMR body composition analyzer. After eight weeks on diet, females were paired with C57B16/J adult males to produce subject offspring. Resulting offspring were weaned at three weeks of age and all placed on RD, regardless of maternal diet (MRD or MHFD). Germ-free mice (C57B16/J) were maintained in a flexible isolator fed with HEPA-filtered air and provided with irradiated food and water. Germ-free offspring were weaned at four weeks of age. All behavioral tests were performed on 7-12-week-old male mice.
Crawley's three-chamber test for sociability and preference for social novelty was performed as described (Silverman et al., 2010). In brief, the mouse first experienced a 10-minute period of habituation during which it was allowed to freely explore a 60×40×23 cm Plexiglass arena divided into three equally sized, interconnected chambers (Left, Center, Right). Sociability was measured during a second ten-minute period in which the subject could interact either with an empty wire cup (Empty) or a wire cup containing an age and sex-matched stranger conspecific (Mouse 1). Time spent interacting (sniffing, crawling upon) with either the empty cup or the stranger mouse contained in the other cup as well as time spent in each chamber was recorded using the AnyMaze software, by independent observers. […] Time spent in each chamber as well as time spent interacting with either Mouse 1 or Mouse 2 was recorded using the automated AnyMaze software by independent observers. […]

Cntnap2-deficient mice = experiment: Social behavior (sociability, social novelty) in Cntnap2-deficient mice; type: in vivo
Protocol: Crawley's three-chamber test for sociability and preference for social novelty was performed as described (Silverman et al., 2010). In brief, the mouse first experienced a 10-minute period of habituation during which it was allowed to freely explore a 60×40×23 cm Plexiglass arena divided into three equally sized, interconnected chambers (Left, Center, Right). Sociability was measured during a second ten-minute period in which the subject could interact either with an empty wire cup (Empty) or a wire cup containing an age and sex-matched stranger conspecific (Mouse 1). Time spent interacting (sniffing, crawling upon) with either the empty cup or the stranger mouse contained in the other cup as well as time spent in each chamber was recorded using the AnyMaze software, by independent observers. Empty cup placement in the Left or Right chamber during the Sociability period was counterbalanced between trials. Finally, preference for social novelty was assayed by introducing a second stranger mouse (Mouse 2) into the previously the empty wire cup. Time spent in each chamber as well as time spent interacting with either Mouse 1 or Mouse 2 was recorded using the automated AnyMaze software by independent observers.
To examine whether treatment with L. reuteri could restore ASD-like behaviors in genetic models of ASD, we studied mice lacking contactin associated protein-like 2 (CNTNAP2). Mutations in CNTNAP2 have been associated with syndromic forms of ASD (Nascimento, et al., 2016; Yoo, et al., 2017; Zare, et al., 2017; el-Sobky, et al., 2004; Alarcon, et al., 2008; Sampath, et al., 2013; Chiocchetti, et al., 2015), thereby serving as a genetic model of autism in mice. Second, mice lacking Cntnap2 show ASD-like behaviors (Penagarikano, et al.).

[1] = mice lacking Cntnap2, L. reuteri in drinking water

Row | Compound | preference for social novelty (time interacting with novel vs familiar mouse) (MHFD offspring) | sociability (time interacting with mouse vs empty cage) (MHFD offspring) | preference for social novelty (time interacting with novel vs familiar mouse) (MHFD offspring; listed as live L. reuteri) | sociability (time interacting with mouse vs empty cage) (MHFD offspring; listed as live L. reuteri) | preference for social novelty (chamber containing Mouse 2, FIG. 16B) (MHFD offspring; in drinking water, 4 weeks) | sociability (chamber containing a mouse, FIG. 16A) (MHFD offspring; in drinking water, 4 weeks) | sociability (GF mice; L. reuteri in drinking water) | social novelty (GF mice; L. reuteri in drinking water) | social behavior deficits (GF mice; L. reuteri treatment) | social behavior abnormalities (Cntnap2-deficient mice; Cntnap2-deficient mice, L. reuteri treatment) | sociability (Cntnap2-deficient mice; [1]) | social novelty (Cntnap2-deficient mice; [1]) | preference for social novelty (MHFD offspring) | sociability (MHFD offspring) | preference for social novelty (MHFD offspring; listed as Oxytocin) | sociability (MHFD offspring; listed as Oxytocin)
1 | Lactobacillus reuteri MM4-1A (ATCC-PTA-6475) [L. reuteri] | significantly improved | significantly improved sociability | rescued | rescued sociability | improved | improved MHFD offspring sociability | reverses the deficient sociability | reverses | sufficient to restore the social behavior deficits | reverses the social behavior abnormalities | reverses the deficient sociability | reverses | – | – | – | –
2 | CC[C@H](C)[C@@H]1NC(=O)[C@H](Cc2ccc(O)cc2)NC(=O)[C@@H](N)CSSC[C@@H](C(=O)N2CCC[C@H]2C(=O)N[C@@H](CC(C)C)C(=O)NCC(N)=O)NC(=O)[C@H](CC(N)=O)NC(=O)[C@H](CCC(N)=O)NC1=O [oxytocin] | – | – | – | – | – | – | – | – | – | – | – | – | improved | improved sociability | restored | restored
